From patent US20090291971A1, “HETEROARYL ETHERS AND PROCESSES FOR THEIR PREPARATION” (Wyeth, priority 2007, published 2009)

Legend:
Type in all cases: biochemical
PI3K alpha = PI3K alpha (Homo sapiens, UniProt P42336); test: PI3 Kinase Assay (PI3K alpha)
Experimental: (§1) PI3-Kinase reactions were performed in […], pH 7, […], and 25 μM ATP, with diC8-PI(4,5)P2 (Echelon, Salt Lake City Utah) as substrate. Nunc 384 well black polypropylene fluorescent plates were used for PI3K assays. Reactions were quenched by the addition of EDTA to a final concentration of […]. Final reaction volumes were […]. For evaluation of PI 3-K inhibitors, 5 ng of enzyme and 2.5 μM of substrate was used per […] reaction volume, and inhibitor concentrations ranged from 100 μM to […]; the final level of DMSO in reactions never exceeded 2%. Reactions were allowed to proceed for one hour at 25° C. After 1 hour, GST-tagged GRP1 (general receptor for phosphoinositides) PH domain fusion protein was added to a final concentration of 100 nM, and BODIPY-TMRI(1,3,4,5)P4 (Echelon) was also added to a final concentration of 5 nM. Final sample volumes were 25 μl with a final DMSO concentration of 0.8%. Assay Plates were read on Perkin-Elmer Envision plate readers with appropriate filters for Tamra [BODIPY-TMRI(1,3,4,5)P4]. Data obtained were used to calculate enzymatic activity and enzyme inhibition by inhibitor compounds.

PI3K gamma = PI3K gamma (Homo sapiens, UniProt P48736); test: PI3 Kinase Assay (PI3K gamma); conditions: 1 h
Experimental: as §1

human recombinant IRAK4 = biological target: T1, human recombinant IRAK4 (Homo sapiens, UniProt Q9NWZ3); test: IRAK4 kinase ELISA based assay
T1 construct: human recombinant IRAK4 (4 nM) containing residues 154 through 460
T1 sequence (Q9NWZ3 154-460): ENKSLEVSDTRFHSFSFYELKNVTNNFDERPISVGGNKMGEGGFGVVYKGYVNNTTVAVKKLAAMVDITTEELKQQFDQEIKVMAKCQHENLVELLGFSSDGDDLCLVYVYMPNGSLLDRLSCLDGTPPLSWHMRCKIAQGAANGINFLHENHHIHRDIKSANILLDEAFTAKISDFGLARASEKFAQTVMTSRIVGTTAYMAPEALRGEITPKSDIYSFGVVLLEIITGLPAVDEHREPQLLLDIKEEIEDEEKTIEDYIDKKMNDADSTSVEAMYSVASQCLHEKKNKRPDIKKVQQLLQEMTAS
Experimental: IRAK4 kinase activity was assessed using human recombinant IRAK4 (4 nM) containing residues 154 through 460 in an ELISA based assay. The kinase reaction was performed on 96-well streptavidin coated plates using a biotinylated 11-mer peptide derived from MK2 in 20 mM Hepes pH7.4, 10 mM MgCl2, 3 mM DTT, 600 uM ATP, 0.01% Triton X100, 5% DMSO and various compound concentrations in a final volume of 100 ul. The reaction was stopped after 60 min incubation at room temperature with 50 ul of 0.5M EDTA and washed 6 times in PBS 0.05% Tween 20. A Rabbit polyclonal anti-phospho-threonine antibody was then added to the plate along with a Goat anti-Rabbit antibody labeled with europium in 20 mM MOPS, 150 mM NaCl, 0.025% Tween 20, 0.02% gelatin, 1% BSA for 1 hour at room temperature. The plate was then washed 6 times in PBS 0.05% Tween 20 and enhancement solution from Perkin Elmer was added before counting on a Victor 2 reader from Perkin Elmer.

human recombinant MK2 = biological target: T2, human recombinant MK2 (Homo sapiens, UniProt P49137); test: MK2 kinase ELISA based assay
T2 construct: human recombinant MK2 (25 nM) containing residues 41 through 353
Experimental: MK2 kinase activity was assessed using human recombinant MK2 (25 nM) containing residues 41 through 353 in an ELISA based assay. The kinase reaction was performed on 96-well streptavidin coated plates using a biotinylated 16-mer peptide as a substrate derived from LSP1 in 20 mM Hepes pH7.4, 10 mM MgCl2, 3 mM DTT, 1 uM ATP, 0.01% Triton X100, 2% DMSO and various compound concentrations in a final volume of 100 ul. The reaction was stopped after 30 min incubation at room temperature with 50 ul of 0.5M EDTA and washed 6 times in PBS 0.05% Tween 20. Polyclonal anti phospho-LSP1 antibodies was then added to the plate along with a Goat anti-Rabbit antibody labeled with europium in 20 mM MOPS, 150 mM NaCl, 0.025% Tween 20, 0.02% gelatin, 1% BSA for 1 hour at room temperature. The plate was then washed 6 times in PBS 0.05% Tween 20 and enhancement solution from Perkin Elmer was added before counting on a Victor 2 reader from Perkin Elmer.

recombinant human B-Raf = biological target: T3, recombinant human B-Raf (Homo sapiens, UniProt P15056); test: B-Raf Kinase Assay
T3 construct: Flag; GST; purchased Upstate; host or cells: Sf21 insect cells
Experimental: Reagents: Flag/GST-tagged recombinant human B-Raf produced in Sf21 insect cells (purchased from Upstate), human Mek-1-GST, non-active recombinant protein produced in E. coli (from Upstate); and a phospho-MEK1 specific poly-clonal Ab from Cell Signaling Technology (cat. #9121).
• B-Raf-1 is used to phosphorylate GST-MEK1. MEK1 phosphorylation is measured by a phospho-specific antibody (from Cell Signaling Technology, cat. #9121) that detects phosphorylation of two serine residues at positions 217 and 221 on MEK1.
1. Assay Dilution Buffer (ADB): 20 mM MOPS, pH 7.2, 25 mM β-glycerol phosphate, 5 mM EGTA, 1 mM sodium orthovanadate, 1 mM dithiothreitol, 0.01% Triton X-100. 2. Magnesium/ATP Cocktail: ADB solution (minus Triton X-100) plus 200 μM cold ATP and 40 mM magnesium chloride. 3. Active Kinase: Active B-Raf: used at 0.2 nM per assay point. 4. Non-active GST-MEK1: Use at 2.8 nM final concentration). 5. TBST-Tris (50 mM, pH 7.5), NaCl (150 mM), Tween-20 (0.05%)
7. Anti pMEK Ab (Upstate) 8. Anti-rabbit Ab/Europium conjugate (Wallac)
1. Add 25 μl of ADB containing B-Raf and Mek per assay (i.e. per well of a 96 well plate) 2. Add 25 μl of 0.2 mM ATP and 40 mM magnesium chloride in Magnesium/ATP Cocktail. 3. Incubate for 45 minutes at RT with occasional shaking. 4. Transfer this mixture to an anti-GST Ab coated 96 well plate (Nunc Immunosorb plates coated o/n with a-GST. Plate freshly washed 3× with TBS-T before use. 5. Incubate o/n at […] in cold room. 6. Wash 3× with TBST, add Anti-Phospho MEK1 (1:1000, dilution depends upon lot) 7. Incubate for 60 minutes at RT in a shaking incubator 8. Wash 3× with TBST, add Anti-rabbit Ab/Europium conjugate (Wallac) (1:500, dilution depends upon lot) 9. Incubate for 60 minutes at RT on a platform shaker. 10. Wash plate 3× with TBS-T 11. Add 100 ul of Wallac Delfia Enhancement Solution and shake for 10 minutes. 12. Read plates in Wallac Victor model Plate Reader. 13. Collect data analyze in Excel for single point and IC50 determinations.

T2 sequence (P49137 41-353): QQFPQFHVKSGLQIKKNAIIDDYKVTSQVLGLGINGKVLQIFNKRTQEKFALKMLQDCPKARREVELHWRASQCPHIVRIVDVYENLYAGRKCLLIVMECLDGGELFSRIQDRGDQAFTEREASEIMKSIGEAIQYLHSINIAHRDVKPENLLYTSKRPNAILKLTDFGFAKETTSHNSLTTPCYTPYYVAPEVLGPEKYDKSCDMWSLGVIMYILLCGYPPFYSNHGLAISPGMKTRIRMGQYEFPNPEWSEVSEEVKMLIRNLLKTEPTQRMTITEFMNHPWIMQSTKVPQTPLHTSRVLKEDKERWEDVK
Sequence of PI3K alpha (P42336 whole entry, species assumed, the tested form may be a part): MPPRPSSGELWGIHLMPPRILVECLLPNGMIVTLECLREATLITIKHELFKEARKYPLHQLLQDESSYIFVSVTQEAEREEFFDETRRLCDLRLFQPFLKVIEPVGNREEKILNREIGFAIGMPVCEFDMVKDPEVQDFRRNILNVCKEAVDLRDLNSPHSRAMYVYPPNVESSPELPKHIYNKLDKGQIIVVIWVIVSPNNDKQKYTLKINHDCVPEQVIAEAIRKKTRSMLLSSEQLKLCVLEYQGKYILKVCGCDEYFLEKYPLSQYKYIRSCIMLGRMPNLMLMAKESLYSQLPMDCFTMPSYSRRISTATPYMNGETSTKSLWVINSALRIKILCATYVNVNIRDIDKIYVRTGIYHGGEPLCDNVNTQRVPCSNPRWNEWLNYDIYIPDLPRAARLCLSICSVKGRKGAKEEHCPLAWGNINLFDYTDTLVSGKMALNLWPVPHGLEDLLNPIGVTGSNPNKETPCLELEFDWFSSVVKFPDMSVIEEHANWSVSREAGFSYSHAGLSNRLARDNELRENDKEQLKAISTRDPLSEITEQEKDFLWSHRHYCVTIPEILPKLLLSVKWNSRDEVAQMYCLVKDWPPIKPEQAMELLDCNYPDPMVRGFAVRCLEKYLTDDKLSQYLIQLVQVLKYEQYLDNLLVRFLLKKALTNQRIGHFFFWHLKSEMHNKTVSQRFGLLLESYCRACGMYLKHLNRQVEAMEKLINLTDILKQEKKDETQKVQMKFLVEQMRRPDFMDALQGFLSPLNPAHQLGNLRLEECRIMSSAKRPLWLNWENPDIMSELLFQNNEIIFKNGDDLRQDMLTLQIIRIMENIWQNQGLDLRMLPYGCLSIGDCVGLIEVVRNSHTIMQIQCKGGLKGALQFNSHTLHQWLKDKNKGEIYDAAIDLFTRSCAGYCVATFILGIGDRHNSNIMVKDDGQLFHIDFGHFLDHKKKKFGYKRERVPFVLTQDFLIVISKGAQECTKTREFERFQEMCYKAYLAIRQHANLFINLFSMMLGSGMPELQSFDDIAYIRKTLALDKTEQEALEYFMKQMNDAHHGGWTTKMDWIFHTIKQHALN
Sequence of PI3K alpha (P27986 whole entry partner, species assumed, the tested form may be a part): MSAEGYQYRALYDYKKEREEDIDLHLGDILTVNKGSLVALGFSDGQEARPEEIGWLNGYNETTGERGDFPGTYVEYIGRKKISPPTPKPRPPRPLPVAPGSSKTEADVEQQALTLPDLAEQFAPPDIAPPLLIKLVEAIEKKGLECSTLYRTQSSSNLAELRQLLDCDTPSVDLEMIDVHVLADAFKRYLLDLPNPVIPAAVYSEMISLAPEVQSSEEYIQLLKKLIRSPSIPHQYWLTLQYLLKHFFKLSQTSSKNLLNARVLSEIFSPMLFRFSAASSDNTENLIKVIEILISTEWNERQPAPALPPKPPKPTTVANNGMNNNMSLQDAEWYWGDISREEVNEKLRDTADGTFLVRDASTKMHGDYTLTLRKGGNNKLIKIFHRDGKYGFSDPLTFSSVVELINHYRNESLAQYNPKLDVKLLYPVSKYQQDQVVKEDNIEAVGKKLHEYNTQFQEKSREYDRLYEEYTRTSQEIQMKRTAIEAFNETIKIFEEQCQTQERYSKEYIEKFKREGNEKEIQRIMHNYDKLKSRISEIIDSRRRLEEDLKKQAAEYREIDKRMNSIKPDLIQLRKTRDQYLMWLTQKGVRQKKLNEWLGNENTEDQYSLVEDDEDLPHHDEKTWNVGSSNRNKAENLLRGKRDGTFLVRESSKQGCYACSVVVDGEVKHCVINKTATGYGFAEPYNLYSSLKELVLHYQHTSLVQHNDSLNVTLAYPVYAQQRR
Sequence of PI3K gamma (P48736 whole entry, species assumed): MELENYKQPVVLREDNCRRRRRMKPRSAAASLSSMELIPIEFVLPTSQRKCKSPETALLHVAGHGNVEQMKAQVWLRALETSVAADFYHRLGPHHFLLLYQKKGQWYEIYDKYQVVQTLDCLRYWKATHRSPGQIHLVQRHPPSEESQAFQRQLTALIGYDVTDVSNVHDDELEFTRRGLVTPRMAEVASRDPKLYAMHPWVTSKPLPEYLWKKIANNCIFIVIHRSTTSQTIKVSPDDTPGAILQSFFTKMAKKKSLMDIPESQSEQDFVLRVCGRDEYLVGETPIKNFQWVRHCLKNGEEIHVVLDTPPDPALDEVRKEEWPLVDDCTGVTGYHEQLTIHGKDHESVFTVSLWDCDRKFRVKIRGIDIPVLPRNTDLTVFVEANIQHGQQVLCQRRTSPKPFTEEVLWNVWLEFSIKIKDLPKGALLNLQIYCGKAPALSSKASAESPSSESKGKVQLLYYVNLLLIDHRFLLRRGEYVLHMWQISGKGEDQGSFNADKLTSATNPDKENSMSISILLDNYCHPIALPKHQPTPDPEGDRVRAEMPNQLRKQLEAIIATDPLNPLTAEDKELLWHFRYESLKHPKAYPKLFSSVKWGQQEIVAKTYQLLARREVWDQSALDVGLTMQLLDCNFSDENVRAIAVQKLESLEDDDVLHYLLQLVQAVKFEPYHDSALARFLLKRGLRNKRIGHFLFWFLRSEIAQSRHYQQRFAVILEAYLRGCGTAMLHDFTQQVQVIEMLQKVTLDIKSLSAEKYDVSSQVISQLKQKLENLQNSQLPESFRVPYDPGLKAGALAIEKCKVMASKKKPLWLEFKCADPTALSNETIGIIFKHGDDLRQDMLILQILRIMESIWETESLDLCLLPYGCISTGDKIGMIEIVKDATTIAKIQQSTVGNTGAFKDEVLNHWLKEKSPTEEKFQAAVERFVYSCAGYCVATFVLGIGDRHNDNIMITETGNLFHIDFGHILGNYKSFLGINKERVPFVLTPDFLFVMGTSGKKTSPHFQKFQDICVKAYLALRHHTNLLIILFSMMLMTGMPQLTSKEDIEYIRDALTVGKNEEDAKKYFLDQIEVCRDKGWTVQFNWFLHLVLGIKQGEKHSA
T3 sequence (P15056 whole entry): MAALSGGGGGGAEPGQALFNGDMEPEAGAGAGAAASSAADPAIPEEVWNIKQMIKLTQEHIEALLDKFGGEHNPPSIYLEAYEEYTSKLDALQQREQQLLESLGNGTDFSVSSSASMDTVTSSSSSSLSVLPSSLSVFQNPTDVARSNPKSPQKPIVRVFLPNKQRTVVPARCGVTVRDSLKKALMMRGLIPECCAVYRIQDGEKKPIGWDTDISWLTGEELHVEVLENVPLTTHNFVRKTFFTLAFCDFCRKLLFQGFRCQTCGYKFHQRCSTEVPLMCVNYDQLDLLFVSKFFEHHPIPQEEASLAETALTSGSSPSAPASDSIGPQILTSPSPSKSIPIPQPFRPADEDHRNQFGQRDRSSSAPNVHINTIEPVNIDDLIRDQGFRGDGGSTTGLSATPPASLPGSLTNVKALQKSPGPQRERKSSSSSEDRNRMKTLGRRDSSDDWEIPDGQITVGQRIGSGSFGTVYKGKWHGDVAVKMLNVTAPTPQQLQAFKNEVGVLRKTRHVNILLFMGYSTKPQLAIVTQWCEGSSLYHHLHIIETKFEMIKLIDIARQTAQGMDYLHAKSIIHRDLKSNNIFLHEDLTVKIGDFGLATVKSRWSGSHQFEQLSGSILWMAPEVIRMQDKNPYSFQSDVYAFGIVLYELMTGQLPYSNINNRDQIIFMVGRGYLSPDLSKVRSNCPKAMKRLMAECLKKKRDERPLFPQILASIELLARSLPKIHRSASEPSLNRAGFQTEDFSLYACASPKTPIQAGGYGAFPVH

SMILES	inhibition at 30 µM (PI3K alpha) [%]	inhibition at 30 µM (PI3K gamma) [%]	inhibition at 10 µM (human recombinant IRAK4) [%]	inhibition at 30 µM (human recombinant MK2) [%]	inhibition at 10 µM (recombinant human B-Raf) [%]
O=[N+]([O-])c1cccc(Oc2ncnc3ccccc23)c1 [Example 19, 4-(3-Nitrophenoxy)quinazoline]	24	< 10	–	–	–
COc1ccc(Oc2ncnc3ccccc23)cc1 [Example 20, 4-(4-Methoxyphenoxy)quinazoline]	65	4	–	–	–
FC(F)(F)c1ccc(Oc2ncnc3ccccc23)cc1 [Example 21, 4-(4-(Trifluoromethyl)phenoxy)quinazoline]	36	6	–	–	–
CC(=O)c1ccc(Oc2ncnc3ccccc23)cc1 [Example 22, 1-(4-(Quinazolin-4-yloxy)phenyl)ethanone]	34	45	–	–	–
N#Cc1ccc(Oc2ncnc3ccccc23)cc1 [Example 24, 4-(Quinazolin-4-yloxy)benzonitrile]	18	< 10	–	–	–
Clc1ccc(Oc2ncnc3ccccc23)cn1 [Example 25, 4-(6-Chloropyridin-3-yloxy)quinazoline]	42	11	19	31	20
COc1ncccc1Oc1ncnc2ccccc12 [Example 28, 4-(2-Methoxypyridin-3-yloxy)quinazoline]	22	< 10	–	–	–
c1ccc2c(Oc3ccc4[nH]ccc4c3)ncnc2c1 [Example 29, 4-(1H-Indol-5-yloxy)quinazoline]	68	21	–	–	21
c1ccc2c(Oc3ccsc3)ncnc2c1 [Example 30, 4-(Thiophen-3-yloxy)quinazoline]	87	55	39	34	14
N#Cc1cccc(Oc2ncnc3sccc23)c1 [Example 32, 3-(Thieno[2,3-d]pyrimidin-4-yloxy)benzonitrile]	32	< 10	–	–	–
O=[N+]([O-])c1cccc(Oc2ncnc3sccc23)c1 [Example 34, 4-(3-Nitrophenoxy)thieno[2,3-d]pyrimidine]	14	< 10	–	–	–
Cc1noc(C)c1Oc1ncnc2sccc12 [Example 35, 3,5-Dimethyl-4-(thieno[2,3-d]pyrimidin-4-yloxy)isoxazole]	26	11	–	–	–
COC(=O)c1sc2ncnc(Oc3ccccc3)c2c1C [Example 36, Methyl 5-methyl-4-phenoxythieno[2,3-d]pyrimidine-6-carboxylate]	63	36	–	–	–
COC(=O)c1sc2ncnc(Oc3cccc([N+](=O)[O-])c3)c2c1C [Example 37, Methyl 5-methyl-4-(3-nitrophenoxy)thieno[2,3-d]pyrimidine-6-carboxylate]	24	16	–	–	–
COC(=O)c1sc2ncnc(Oc3cccc(C#N)c3)c2c1C [Example 38, Methyl 4-(3-cyanophenoxy)-5-methylthieno[2,3-d]pyrimidine-6-carboxylate]	40	23	–	–	–
COC(=O)c1sc2ncnc(Oc3c(C)noc3C)c2c1C [Example 39, Methyl 4-(3,5-dimethylisoxazol-4-yloxy)-5-methylthieno[2,3-d]pyrimidine-6-carboxylate]	24	15	21	32	–
COc1ncccc1Oc1ncc(Br)cn1 [Example 57, 5-Bromo-2-(2-methoxypyridin-3-yloxy)pyrimidine]	44	< 10	–	–	–
Cn1ccc(Oc2ccccc2)nc1=O [Example 58, 1-Methyl-4-phenoxypyrimidin-2(1H)-one]	32	< 10	–	–	17
COc1ncccc1Oc1ccn(C)c(=O)n1 [Example 59, 4-(2-Methoxypyridin-3-yloxy)-1-methylpyrimidin-2(1H)-one]	46	< 10	–	–	–
CC(=O)c1ccccc1Oc1ncc(Br)cn1 [compound 44, 1-[2-(5-Bromo-pyrimidin-2-yloxy)-phenyl]-ethanone]	72	44	–	–	–
